In brackets after ≈: the same amount, converted by molar mass. Like-named read-outs stand apart in the source and are kept apart here.
What was measured:
Assay type in all cases: cell-based
[1] = tested on: S. pyogenes S B352; experiment: IN VITRO antibacterial activity, S. pyogenes S B352; details: Streptococcus pyogenes, SB352, 24 h
Description: (§1) In the Tables above MIC stands for minimum inhibitory concentration and
(§2) the results were obtained by providing halving dilutions of the test
(§3) compound in nutrient broth (concentrations usually range from 1/10,000 to
(§4) 1/320,000). These solutions are inoculated with the test organism,
(§5) incubated for 24 hours at 37° C and then examined for the presence
(§6) of growth. A test compound found to have a minimum inhibitory
(§7) concentration (MIC) of 1/160,000 is generally considered as a lead.

[2] = tested on: S. pyogenes R 353; experiment: IN VITRO antibacterial activity, S. pyogenes R 353; details: Streptococcus pyogenes, R353, 24 h
Description: as §1, §2, §3, §4, §5, §6, §7

[3] = tested on: S. fecalis 353; experiment: IN VITRO antibacterial activity, S. fecalis 353; details: 24 h
Description: as §1, §2, §3, §4, §5, §6, §7

[4] = tested on: E. Coli 198 (ATCC 1/229); experiment: IN VITRO antibacterial activity, E. Coli 198 (ATCC 1/229); details: Escherichia coli, ATCC1, 24 h
Description: as §1, §2, §3, §4, §5, §6, §7

[5] = tested on: A. aerogenes 357; experiment: IN VITRO antibacterial activity, A. aerogenes 357; details: Klebsiella aerogenes, 357, 24 h
Description: as §1, §2, §3, §4, §5, §6, §7

[6] = tested on: S. pullorum 358; experiment: IN VITRO antibacterial activity, S. pullorum 358; details: Salmonella enterica, PULLORUM, 24 h
Description: as §1, §2, §3, §4, §5, §6, §7

[7] = tested on: P. aeruginosa 359; experiment: IN VITRO antibacterial activity, P. aeruginosa 359; details: Pseudomonas aeruginosa, 359, 24 h
Description: as §1, §2, §3, §4, §5, §6, §7

[8] = tested on: Pr. mirabilis 360; experiment: IN VITRO antibacterial activity, Pr. mirabilis 360; details: Proteus mirabilis, 360, 24 h
Description: as §1, §2, §3, §4, §5, §6, §7

[9] = tested on: Pr. vulgaris 316; experiment: IN VITRO antibacterial activity, Pr. vulgaris 316; details: Proteus vulgaris, 316, 24 h
Description: as §1, §2, §3, §4, §5, §6, §7

[10] = tested on: Kl. pneumoniae 855 (ATCC 10081); experiment: IN VITRO antibacterial activity, Kl. pneumoniae 855 (ATCC 10081); details: Klebsiella pneumoniae, ATCC10081, nutrient broth, 24 hours at 37° C
Description: as §1, §2, §3, §4, §5, §6, §7

[11] = tested on: S. marcesceus 854 (ATCC → 103); experiment: IN VITRO antibacterial activity, S. marcesceus 854 (ATCC → 103); details: 24 h
Description: as §1, §2, §3, §4, §5, §6, §7

[12] = tested on: P. aeruginosa 87442; experiment: IN VITRO antibacterial activity against resistant organisms, P. aeruginosa 87442; details: resistant organism P. aeruginosa 87442, nutrient broth, 24 hours at 37° C
Description: as §1, §2, §3, §4, §5, §6, §7

[13] = tested on: P. aeruginosa 377; experiment: IN VITRO antibacterial activity against resistant organisms, P. aeruginosa 377; details: resistant organism P. aeruginosa 377, nutrient broth, 24 hours at 37° C
Description: as §1, §2, §3, §4, §5, §6, §7

[14] = tested on: E. coli B989; experiment: IN VITRO antibacterial activity against resistant organisms, E. coli B989; details: resistant organism E. coli B989, nutrient broth, 24 hours at 37° C
Description: as §1, §2, §3, §4, §5, §6, §7

[15] = tested on: E. coli B1002; experiment: IN VITRO antibacterial activity against resistant organisms, E. coli B1002; details: resistant organism E. coli B1002, nutrient broth, 24 hours at 37° C
Description: as §1, §2, §3, §4, §5, §6, §7

[16] = tested on: S. pyogenes S; experiment: IN VITRO antibacterial activity, S. pyogenes S; details: Streptococcus pyogenes, 24 h
Description: as §1, §2, §3, §4, §5, §6, §7

[17] = tested on: S. pyogenes R; experiment: IN VITRO antibacterial activity, S. pyogenes R; details: Streptococcus pyogenes, 24 h
Description: as §1, §2, §3, §4, §5, §6, §7

[18] = tested on: S. fecalis; experiment: IN VITRO antibacterial activity, S. fecalis; details: 24 h
Description: as §1, §2, §3, §4, §5, §6, §7

[19] = tested on: E. coli 198; experiment: IN VITRO antibacterial activity, E. coli 198; details: Escherichia coli, 198, 24 h
Description: as §1, §2, §3, §4, §5, §6, §7

[20] = tested on: A. aerogenes; experiment: IN VITRO antibacterial activity, A. aerogenes; details: Klebsiella aerogenes, 24 h
Description: as §1, §2, §3, §4, §5, §6, §7

[21] = tested on: S. pullorm; experiment: IN VITRO antibacterial activity, S. pullorm; details: 24 h
Description: as §1, §2, §3, §4, §5, §6, §7

[22] = tested on: P. aeruginosa; experiment: IN VITRO antibacterial activity, P. aeruginosa; details: Pseudomonas aeruginosa, 24 h
Description: as §1, §2, §3, §4, §5, §6, §7

[23] = tested on: P. mirabilis; experiment: IN VITRO antibacterial activity, P. mirabilis; details: Proteus mirabilis, 24 h
Description: as §1, §2, §3, §4, §5, §6, §7

[24] = tested on: K. pneumoniae; experiment: IN VITRO antibacterial activity, K. pneumoniae; details: Klebsiella pneumoniae, 24 h
Description: as §1, §2, §3, §4, §5, §6, §7

[25] = tested on: S. marcesceus; experiment: IN VITRO antibacterial activity, S. marcesceus; details: 24 h
Description: as §1, §2, §3, §4, §5, §6, §7

[26] = tested on: E. coli B996; experiment: IN VITRO antibacterial activity, E. coli B996 (resistant to Kanamycin and paromomycin); details: Escherichia coli, nutrient broth, 24 hours at 37° C
Description: as §1, §2, §3, §4, §5, §6, §7

[27] = Pseudomonas aeruginosa, read-out: MIC
[28] = Escherichia coli, read-out: MIC

NC[C@@H]1O[C@H](O[C@H]2[C@@H](O)[C@H](O[C@@H]3[C@@H](O)[C@H](N)C[C@H](N)[C@H]3O[C@H]3O[C@H](CN)[C@@H](O)[C@H](O)[C@H]3N)O[C@@H]2CO)[C@H](N)[C@@H](O)[C@@H]1O [Neomycin B, neomycin B]
MIC [1]: < 0.2 µg/mL
MIC [2]: < 0.2 µg/mL
MIC [3]: 0.8 µg/mL (≈ 1.3 µM)
MIC [4]: 0.8 µg/mL (≈ 1.3 µM)
MIC [5]: < 0.2 µg/mL
MIC [6]: < 0.2 µg/mL
MIC [7]: 0.8 µg/mL (≈ 1.3 µM)
MIC [8]: 0.4 µg/mL (≈ 0.651 µM)
MIC [9]: < 0.2 µg/mL
MIC [10]: < 0.2 µg/mL
MIC [11]: < 0.2 µg/mL

NC[C@@H]1O[C@H](O[C@H]2[C@@H](O)[C@H](O[C@@H]3[C@@H](O)[C@H](N)C[C@H](N)[C@H]3O[C@H]3O[C@H](CN)[C@@H](O)[C@H](O)[C@H]3N)O[C@@H]2CO)[C@H](N)[C@@H](O)[C@@H]1O [Neomycin]
MIC [12, 27]: < 0.2 µg/mL
MIC [13, 27]: 0.4 µg/mL (≈ 0.651 µM)
MIC [14, 28]: 1.6 µg/mL (≈ 2.6 µM)
MIC [15, 28]: 50 µg/mL (≈ 81.3 µM)

NC[C@@H]1O[C@H](O[C@H]2[C@@H](O)[C@H](O[C@@H]3[C@@H](O)[C@H](N)C[C@H](N)[C@H]3O[C@H]3O[C@H](CO)[C@@H](O)[C@H](O)[C@H]3N)O[C@@H]2CO)[C@H](N)[C@@H](O)[C@@H]1O [Paromomycin]
MIC [16]: < 0.2 µg/mL
MIC [17]: < 0.2 µg/mL
MIC [18]: 1.6 µg/mL (≈ 2.6 µM)
MIC [19]: 0.4 µg/mL (≈ 0.65 µM)
MIC [20]: > 0.2 µg/mL
MIC [21]: > 0.2 µg/mL
MIC [22]: 0.8 µg/mL (≈ 1.3 µM)
MIC [23]: > 0.2 µg/mL
MIC [24]: > 0.2 µg/mL
MIC [25]: 0.4 µg/mL (≈ 0.65 µM)
MIC [26]: > 100 µg/mL

Gentamycin
MIC [12]: < 0.2 µg/mL
MIC [13]: < 0.2 µg/mL
MIC [14]: < 0.2 µg/mL
MIC [15]: < 0.2 µg/mL

— patent US4066753A, “Neomycin and paromomycin derivatives” (Canadian Patents and Development Limited, priority 1976, dated 1978)
